Measurements reported in patent publication US20240207258A1, “HETEROCYCLIC PDK1 INHIBITORS FOR USE TO TREAT CANCER” (Viracta Therapeutics, Inc., priority 2015, published 2024).

How the values were obtained:
[1] = tested on: Mec-1; test: MTS cell proliferation assay, Mec-1; format: cell-based; conditions: Homo sapiens, MEC1; Mec-1, 72 hr
Procedure: (§1) Cell proliferation was measured using the CellTiter 96 Aqueous Non-Radioactive Cell Proliferation Assay (Promega). The CellTiter 96® AQueous Assay is composed of solutions of a tetrazolium compound [3-(4,5-dimethylthiazol-2-yl)-5-(3-carboxymethoxyphenyl)-2-(4-sulfophenyl)-2H-tetrazolium, inner salt; MTS] and an electron coupling reagent (phenazine methosulfate) PMS. MTS is bioreduced by cells into a formazan product that is soluble in tissue culture medium. The absorbance of the formazan product at 490 nm can be measured directly from assay plates without additional processing. The quantity of formazan product as measured by the amount of 490 nm absorbance is directly proportional to the number of living cells in culture. Cells were seeded into 96-well or 384-well clear plates in a volume of 200 μL (96-well) or 50 μL (384-well) at optimized densities ranging from 1,000 to 40,000 cells per well for 96-well plates or 1,200 to 25,000 cells per well for 384-well plates depending on cell-line. After 4-6 hr recovery, serially diluted compounds in DMSO were added to the cells using (0.1% v/v final DMSO concentration). Cells were then grown at 37° C. in a humidified incubator with 5% CO2 for 72 hr. A 20:1 [3-(4,5-dimethylthiazol-2-yl)-5-(3-carboxymethoxyphenyl)-2-(4-sulfophenyl)-2H-tetrazolium](MTS):phenazine methosulfate (PMS) solution in DPBS was made immediately before use, added to each well, and cells were incubated for 1.5 hr at 37° C. The absorbance at 490 nm was then measured using a platereader. Absorbance values were normalized as percent of control (cells incubated in the presence of 0.1% v/v DMSO). Sigmoidal dose-response curves were plotted using log(inhibitor) vs. response—Variable slope (four parameters) model with a top value constrained to 100% (GraphPad Prism version 6.00 for Windows, GraphPad Software, La Jolla California USA). […] Curves for compounds that reached a plateau were matched exactly to the measurement points. […]

[2] = tested on: SU-DHL-6; test: MTS cell proliferation assay, SU-DHL-6; format: cell-based; conditions: Homo sapiens; SU-DHL-6, 72 hr
Procedure: as §1

[3] = target: T1, Full-length PDK1 (Homo sapiens, UniProt O15530); test: PDK1 kinase activity assay (FRET); format: biochemical; conditions: for inhibition of PDK1 kinase activity: phosphorylated and un-phosphorylated PDK1, FIGS. 2A and 2B
T1 construct: Full-length PDK1 protein (SignalChem) was dephosphorylated; purchased SignalChem
T1 sequence (O15530 1-556): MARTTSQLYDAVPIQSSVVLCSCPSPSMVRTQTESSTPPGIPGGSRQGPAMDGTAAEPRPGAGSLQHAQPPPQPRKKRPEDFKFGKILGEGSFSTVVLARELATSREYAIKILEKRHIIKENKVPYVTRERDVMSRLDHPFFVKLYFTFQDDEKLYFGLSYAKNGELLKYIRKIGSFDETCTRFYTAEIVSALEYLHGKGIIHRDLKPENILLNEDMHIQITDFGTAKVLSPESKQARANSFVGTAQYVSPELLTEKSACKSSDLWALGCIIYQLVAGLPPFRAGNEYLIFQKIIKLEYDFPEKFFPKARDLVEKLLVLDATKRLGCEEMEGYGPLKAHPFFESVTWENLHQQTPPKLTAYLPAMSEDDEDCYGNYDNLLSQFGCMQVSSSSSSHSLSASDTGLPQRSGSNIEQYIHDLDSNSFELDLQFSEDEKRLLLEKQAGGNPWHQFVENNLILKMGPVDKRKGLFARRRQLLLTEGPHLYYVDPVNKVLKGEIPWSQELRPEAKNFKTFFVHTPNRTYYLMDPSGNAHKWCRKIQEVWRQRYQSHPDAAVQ
Procedure: Full-length PDK1 protein (SignalChem) was dephosphorylated using GST-k-phosphatase (produced in house), which was subsequently removed using glutathione-agarose beads (Gold Biotechnology). […] Tb-pCrosstide antibody (ThermoFisher) was then added to a final concentration of 2 nM and the reaction was incubated for an additional 30 min. Fluorescence resonance energy transfer (FRET) was measured using a Tecan Infinite F500 plate reader with λex=340 nm, λem1=485 nm, λem2=520 nm.

[4] = target: T2, Full-length phosphorylated PDK1 (Homo sapiens, UniProt O15530); test: Fluorescence polarization PIF-tide binding assay; conditions: PDK1 saturating amounts of compound, FIG. 13C
T2 sequence (O15530 1-556): T1 sequence (O15530 1-556)

[5] = target: T2, Full-length phosphorylated PDK1; test: FRET-based PIF-tide binding assay; conditions: 10 nM compound where stated, FIG. 13D

| Compound | EC50 [1] [nM] | EC50 [2] [nM] | inhibition of PDK1 kinase activity [3] | PIF-tide binding to PDK1 (fluorescence polarization, words) [4] | FRET between PDK1 and PIF-tide [5] | biochemical potency compared to GSK2334470 [3] |
| --- | --- | --- | --- | --- | --- | --- |
| C[C@H](NC(=O)c1nc(C#N)cnc1NCc1ccc(-c2cnc3[nH]nc(N)c3n2)cc1)c1ccc(F)c(F)c1 [Compound 1, 3-[4-(3-Amino-1H-pyrazolo[3,4-b]pyrazin-5-yl)-benzylamino]-6-cyano-pyrazine-2-carboxylic acid [1-(3,4-difluoro-phenyl)-ethyl]-amide] | 415 | 572 | potent inhibitors of both phosphorylated and un-phosphorylated PDK1 | significant inhibition of PIF-tide binding | near complete inhibition | – |
| CNc1n[nH]c2ncc(-c3ccc(CNc4ncc(C#N)nc4C(=O)N[C@@H](C)c4ccc(F)c(F)c4)cc3)cc12 [Compound 2, 6-Cyano-3-[4-(3-methylamino-1H-pyrazolo[3,4-b]pyridin-5-yl)-benzylamino]-pyrazine-2-carboxylic acid [1-(3,4-difluoro-phenyl)-ethyl]-amide] | 215 | 476 | potent inhibitors of both phosphorylated and un-phosphorylated PDK1 | significant inhibition of PIF-tide binding | near complete inhibition | comparable biochemical potency |
